Reference: US10487093B2, “Heterocyclic compounds, in particular 2-oxo-4,4,5,5,6,6,7,7-octahydrobenzoxazole derivatives, and their use as antibacterial compounds” (priority 2016, dated 2019)
In brackets after ≈: the same amount, converted by molar mass. Read-outs that look alike come from different tables or passages of the source.

Experiments:
Type in all cases: cell-based
[1] = test system: strains of Bacteroides thetaiotaomicron; assay: microbe, parasite or virus in culture; settings: Bacteroides thetaiotaomicron strain 11, read-out: MIC
[2] = test system: strains of Peptoniphilus harei; assay: MIC against anaerobes, agar dilution (CLSI), clinical isolates; settings: Peptoniphilus harei, read-out: MIC
[3] = test system: strains of Parvimonas micra; assay: as above
[4] = test system: strains of Peptostreptococcus anaerobius; assay: as above
[5] = test system: strains of Bacteroides fragilis; assay: as above
[6] = test system: Staphylococcus aureus ATCC 29213; assay: MIC, broth microdilution (CLSI) versus planktonic bacteria; settings: ATCC29213; Staphylococcus aureus ATCC 29213; 16-20 h; mode of three independent experiments; read-out: MIC, Sa ATCC 29213
[7] = test system: strains of Prevotella bivia; assay: MIC against anaerobes, agar dilution (CLSI), clinical isolates
[8] = test system: Haemophilus influenzae ATCC 49247; assay: MIC, broth microdilution (CLSI) versus planktonic bacteria; settings: ATCC49247; Haemophilus influenzae ATCC 49247; 16-20 h; mode of three independent experiments; read-out: MIC, Hi ATCC 49247

Cc1ccc2ncc(=O)n(CCN[C@H]3CC[C@H]4[C@@H](C3)OC(=O)N4c3ccc4c(n3)NC(=O)CO4)c2c1 [Compound 27, 1-(2-{[(3aS,6S,7aR)-2-oxo-3-{3-oxo-2H,3H,4H-pyrido[3,2-b][1,4]oxazin-6-yl}-octahydro-1,3-benzoxazol-6-yl]amino}ethyl)-7-methyl-1,2-dihydroquinoxalin-2-one]
MIC [1]: 4 to 16 µg/mL (≈ 8.15 to 32.6 µM)
MIC ([2]; Peptoniphilus harei strain 1): < 1 µg/mL
MIC ([2]; Peptoniphilus harei strain 2): < 1 µg/mL
MIC ([2]; Peptoniphilus harei strain 3): < 1 µg/mL
MIC ([2]; Peptoniphilus harei strain 4): < 1 µg/mL
MIC ([2]; Peptoniphilus harei strain 5): < 1 µg/mL
MIC ([2]; Peptoniphilus harei strain 6): < 1 µg/mL
MIC ([2]; Peptoniphilus harei strain 7): < 1 µg/mL
MIC ([2]; Peptoniphilus harei strain 8): < 1 µg/mL
MIC ([2]; Peptoniphilus harei strain 9): < 1 µg/mL
MIC ([2]; Peptoniphilus harei strain 10): < 1 µg/mL
MIC ([2]; Peptoniphilus harei strain 11): < 1 µg/mL
MIC ([2]; Peptoniphilus harei strain 12): < 1 µg/mL
MIC ([3]; Parvimonas micra strain 1): > 64 µg/mL
MIC ([3]; Parvimonas micra strain 2): 16 to 64 µg/mL (≈ 32.6 to 130 µM)
MIC ([3]; Parvimonas micra strain 3): > 64 µg/mL
MIC ([3]; Parvimonas micra strain 4): > 64 µg/mL
MIC ([3]; Parvimonas micra strain 5): > 64 µg/mL
MIC ([3]; Parvimonas micra strain 6): 1 to 4 µg/mL (≈ 2.04 to 8.15 µM)
MIC ([3]; Parvimonas micra strain 7): 16 to 64 µg/mL (≈ 32.6 to 130 µM)
MIC ([3]; Parvimonas micra strain 8): 16 to 64 µg/mL (≈ 32.6 to 130 µM)
MIC ([3]; Parvimonas micra strain 9): 16 to 64 µg/mL (≈ 32.6 to 130 µM)
MIC ([3]; Parvimonas micra strain 10): 16 to 64 µg/mL (≈ 32.6 to 130 µM)
MIC ([3]; Parvimonas micra strain 11): 16 to 64 µg/mL (≈ 32.6 to 130 µM)
MIC ([3]; Parvimonas micra strain 12): 16 to 64 µg/mL (≈ 32.6 to 130 µM)
MIC ([4]; Peptostreptococcus anaerobius strain 1): < 1 µg/mL
MIC ([4]; Peptostreptococcus anaerobius strain 2): < 1 µg/mL
MIC ([4]; Peptostreptococcus anaerobius strain 3): < 1 µg/mL
MIC ([4]; Peptostreptococcus anaerobius strain 4): 4 to 16 µg/mL (≈ 8.15 to 32.6 µM)
MIC ([4]; Peptostreptococcus anaerobius strain 5): < 1 µg/mL
MIC ([4]; Peptostreptococcus anaerobius strain 6): < 1 µg/mL
MIC ([4]; Peptostreptococcus anaerobius strain 7): < 1 µg/mL
MIC ([4]; Peptostreptococcus anaerobius strain 8): < 1 µg/mL
MIC ([4]; Peptostreptococcus anaerobius strain 9): < 1 µg/mL
MIC ([4]; Peptostreptococcus anaerobius strain 10): < 1 µg/mL
MIC ([5]; Bacteroides fragilis strain 1): 16 to 64 µg/mL (≈ 32.6 to 130 µM)
MIC ([5]; Bacteroides fragilis strain 2): 1 to 4 µg/mL (≈ 2.04 to 8.15 µM)
MIC ([5]; Bacteroides fragilis strain 3): 1 to 4 µg/mL (≈ 2.04 to 8.15 µM)
MIC ([5]; Bacteroides fragilis strain 4): 1 to 4 µg/mL (≈ 2.04 to 8.15 µM)
MIC ([5]; Bacteroides fragilis strain 5): 1 to 4 µg/mL (≈ 2.04 to 8.15 µM)
MIC ([5]; Bacteroides fragilis strain 6): 1 to 4 µg/mL (≈ 2.04 to 8.15 µM)
MIC ([5]; Bacteroides fragilis strain 7): 4 to 16 µg/mL (≈ 8.15 to 32.6 µM)
MIC ([5]; Bacteroides fragilis strain 8): 1 to 4 µg/mL (≈ 2.04 to 8.15 µM)
MIC ([5]; Bacteroides fragilis strain 9): 1 to 4 µg/mL (≈ 2.04 to 8.15 µM)
MIC ([5]; Bacteroides fragilis strain 10): 1 to 4 µg/mL (≈ 2.04 to 8.15 µM)
MIC ([5]; Bacteroides fragilis strain 11): 1 to 4 µg/mL (≈ 2.04 to 8.15 µM)
MIC ([5]; Bacteroides fragilis strain 12): 1 to 4 µg/mL (≈ 2.04 to 8.15 µM)
MIC [6]: < 1 µg/mL
MIC ([7]; Prevotella bivia strain 1): < 1 µg/mL
MIC ([7]; Prevotella bivia strain 2): < 1 µg/mL
MIC ([7]; Prevotella bivia strain 3): 1 to 4 µg/mL (≈ 2.04 to 8.15 µM)
MIC ([7]; Prevotella bivia strain 4): 1 to 4 µg/mL (≈ 2.04 to 8.15 µM)
MIC ([7]; Prevotella bivia strain 5): < 1 µg/mL
MIC ([7]; Prevotella bivia strain 6): 1 to 4 µg/mL (≈ 2.04 to 8.15 µM)
MIC ([7]; Prevotella bivia strain 7): 1 to 4 µg/mL (≈ 2.04 to 8.15 µM)
MIC ([7]; Prevotella bivia strain 8): < 1 µg/mL
MIC ([7]; Prevotella bivia strain 9): < 1 µg/mL
MIC ([7]; Prevotella bivia strain 10): < 1 µg/mL
MIC [8]: 1 to 10 µg/mL (≈ 2.04 to 20.4 µM)
